From patent US12329738B2, “Urolithin A and a composition containing same for external use in inflammations of various etiologies” (WARSZAWSKI UNIWERSYTET MEDYCZNY, priority 2018, dated 2025)

Key:
[1] = system: Wistar rats (DNCB-induced atopic dermatitis); assay: Peripheral blood morphology in DNCB-induced atopic dermatitis rat model; assay type: in vivo
Experimental: Wistar rats aged 5-6 weeks (at the start of the experiment) kept under standard conditions with free access to feed and water were used for the tests. The animals were divided into 5 groups, 8 individuals in each group. To prepare 2,4-dinitrochlorobenzene (DNCB) composition inducing inflammation, DNCB was dissolved in 70% ethanol to a final concentration of 1.5% (w/v). Therapeutic composition was an ointment based on white petrolatum with 0.2% or 1.0% urolithin A added. The control ointment was white petrolatum without addition of urolithin A.
The induction of chronic atopic dermatitis involved local 9-fold infiltration with 60 μl 1.5% 2,4-dinitrochlorobenzene (DNCB) on each (external and internal) surface of the right ear over 3 weeks (3 times a week). Negative control was the right ear of rats without induction inflammation.
Treatment of atopic dermatitis with 0.2% or 1.0% urolithin composition and white petrolatum (control) or 1.0% hydrocortisone composition (positive control) was started eight days after sensitization—one day before the fourth application of DNCB. Ointments with appropriate for given group drug added were applied in a total volume of about 20 μl to each ear surface one day before and 6 hours after each DNCB application (for a period of 3 weeks). The negative control group consisted of rats without induced inflammation and treated with white petrolatum in a regimen analogous to the composition of urolithin A or hydrocortisone.
2 mL blood samples were drawn into syringes (containing heparin as an anticoagulant) from the heart under general anesthesia (isoflurane) on day 32 of the experiment. The test was conducted using the DIATRON automated hematology analyzer. Peripheral blood analysis included the assessment of morphotic elements in blood: erythrocytes, leukocytes and thrombocytes and determination of the number and percentage of different types of leukocytes—WBC as well as values of erythrocyte indicators: hemoglobin (HGB), hematocrit (HCT), mean corpuscular volume (MCV), mean corpuscular hemoglobin (MCH) and mean corpuscular hemoglobin concentration (MCHC).
The experimental results obtained were analyzed using the Statistica 7.1 program (StatSoft, Inc., Tulsa, OK, USA) and presented as mean values±SE. Statistical significance was set at P≤0.05. The results with established normal distribution in the D'Agostin and Pearson test were prepared using two- or three-factor analysis of variance (ANOVA). Parametric post-hoc analysis for individual time points was performed using the Bonferroni test.

[2] = system: NHDF fibroblasts (human normal skin fibroblasts); conditions: comparative studies by the inventors
Experimental: NHDF fibroblasts (human normal skin fibroblasts) were cultured in the DMEM medium supplemented with 10% FBS and a mixture of antibiotics—penicillin and streptomycin at 37° C., 5% CO2. […] After incubation with the compounds, the cells were washed twice with warm medium. The effect on cell viability was assessed using a standard MTT test.

[3] = system: ERK1/2; assay: ERK1/2 phosphorylation in THP-1 derived macrophages (Western blotting); assay type: cell-based, human; conditions: 40 μM; LPS 10 ng/mL, 35 min; FIG. 15
Experimental: Monocytes of the THP-1 line were cultured in RPMI 1640 medium supplemented with 10% FBS and 2 mM glutamine. For transformation of monocytes into macrophages, the cells were treated with 12.5 ng/mL PMA (phorbol 12-myristate 13-acetate) for 48 hours, then washed and incubated for 24 hours in a culture medium without PMA. After this time, urolithin A, urolithin B, iso-urolithin A and the corresponding glucuronides (GUA, GUB and GiUA) were added to the cells at a concentration of 40 μM. After 1 hour of incubation with the compounds, the cells were stimulated with LPS from Escherichia coli (10 ng/mL). To assess the level of TNF-alpha production, the cells were incubated for 6 hours, to assess the expression of mRNA for TNF-alpha, the cells were incubated for 24 hours, to assess the effect on ERK1/2 phosphorylation, the cells were incubated for 35 minutes. […] The obtained results of experiments on in vitro models were analyzed using the Statistica 13 program (StatSoft, Inc., Tulsa, OK, USA) and presented as mean values±SEM. Statistical significance was set at P≤0.05. The results with established normal distribution in the D'Agostin and Pearson test were prepared using analysis of variance (ANOVA). Parametric post-hoc analysis was performed using Dunnett's test.

[4] = molecular target: T1, tyrosinase (Mus musculus, UniProt P11344); conditions: B16 melanoma cells; cited from earlier work
T1 sequence (P11344 19-533): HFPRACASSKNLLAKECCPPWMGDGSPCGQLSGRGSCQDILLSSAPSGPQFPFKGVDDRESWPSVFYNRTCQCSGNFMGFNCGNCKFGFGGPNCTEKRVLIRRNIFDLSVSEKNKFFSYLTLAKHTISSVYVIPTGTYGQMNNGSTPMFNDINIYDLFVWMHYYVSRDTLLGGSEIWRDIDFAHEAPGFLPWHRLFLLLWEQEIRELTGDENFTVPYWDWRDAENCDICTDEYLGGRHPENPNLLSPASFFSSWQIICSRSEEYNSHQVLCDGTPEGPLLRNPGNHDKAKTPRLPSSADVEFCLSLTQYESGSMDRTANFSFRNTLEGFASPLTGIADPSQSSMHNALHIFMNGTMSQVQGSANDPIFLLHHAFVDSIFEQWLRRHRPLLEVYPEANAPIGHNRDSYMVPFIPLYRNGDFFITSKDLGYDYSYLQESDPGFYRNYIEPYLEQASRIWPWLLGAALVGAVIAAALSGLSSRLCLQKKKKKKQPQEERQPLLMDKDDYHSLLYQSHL

[5] = day 32, 1% hydrocortisone, urolithin A 0.2 and 1%

Compound: O=c1oc2cc(O)ccc2c2ccc(O)cc12 [urolithin A]
- WBC (leukocyte) level ([1]; 0.2% composition, day 32, vs petrolatum, p<0.05): reduced WBC values similar to 1% hydrocortisone
- WBC (leukocyte) level ([1]; 1% composition, day 32, vs petrolatum, hydrocortisone p<0.05, urolithin A p<0.01): decrease in the WBC level
- Final WBC values compared to negative control (without atopic dermatitis) ([1]; 1% hydrocortisone, urolithin A 0.2 and 1%): remained at a higher level compared to negative control groups
- WBC growth inhibition compared to 1% hydrocortisone ([1]; 1% urolithin A): did not result in a significantly greater effect of WBC growth inhibition
- MPV (fl), PDW (fl), PDWcv (%) ([1]; day 32): did not change
- RBC, HGB, HCT, MCV ([1]; day 32): no changes
- Concentration of hemoglobin in erythrocytes (MCH and MCHC) ([1]; day 32, 1% hydrocortisone (p<0.05), urolithin A 0.2 and 1.0%): this effect was not seen
- Monocyte population [1, 5]: significantly inhibited the increase in the level of all three leukocyte populations
- Neutrophil population [1, 5]: significantly inhibited the increase in the level of all three leukocyte populations
- Lymphocyte level ([1]; day 32, 1% hydrocortisone, urolithin A 0.2 and 1%, vs petrolatum): significantly inhibited the increase in the level of all three leukocyte populations
- Antiproliferative activity on human skin fibroblast cells [2]: neither urolithin A, nor 8-acetyl-urolithin A, nor 3-acetyl-urolithin A showed antiproliferative activity
- ERK1/2 kinase phosphorylation in THP-1 derived macrophages [3]: stimulation of ERK1/2 kinase phosphorylation
- Tyrosinase activity (depigmentation) [4]: suppressing tyrosinase activity
